Experimental data as given in publication PMC3664191 (Bioorganic & medicinal chemistry letters, 2013).
One block for each molecule: values may come before it.

Columns and labels:
CSNK1E = CSNK1E (Homo sapiens, UniProt P49674); assay: DiscoverRX KINOMEscan binding; conditions: read-out: % control CSNK1E
DRAK = assay: DiscoverRX KINOMEscan binding; conditions: 10 μM
[1] = target: dopamine transporter (DAT) (Homo sapiens, UniProt Q01959); assay: Ricerca LeadProfiling off-target screen; type: binding; conditions: read-out: inhibition or stimulation, dopamine transporter (DAT)
Chain of dopamine transporter (DAT) (Q01959 whole entry): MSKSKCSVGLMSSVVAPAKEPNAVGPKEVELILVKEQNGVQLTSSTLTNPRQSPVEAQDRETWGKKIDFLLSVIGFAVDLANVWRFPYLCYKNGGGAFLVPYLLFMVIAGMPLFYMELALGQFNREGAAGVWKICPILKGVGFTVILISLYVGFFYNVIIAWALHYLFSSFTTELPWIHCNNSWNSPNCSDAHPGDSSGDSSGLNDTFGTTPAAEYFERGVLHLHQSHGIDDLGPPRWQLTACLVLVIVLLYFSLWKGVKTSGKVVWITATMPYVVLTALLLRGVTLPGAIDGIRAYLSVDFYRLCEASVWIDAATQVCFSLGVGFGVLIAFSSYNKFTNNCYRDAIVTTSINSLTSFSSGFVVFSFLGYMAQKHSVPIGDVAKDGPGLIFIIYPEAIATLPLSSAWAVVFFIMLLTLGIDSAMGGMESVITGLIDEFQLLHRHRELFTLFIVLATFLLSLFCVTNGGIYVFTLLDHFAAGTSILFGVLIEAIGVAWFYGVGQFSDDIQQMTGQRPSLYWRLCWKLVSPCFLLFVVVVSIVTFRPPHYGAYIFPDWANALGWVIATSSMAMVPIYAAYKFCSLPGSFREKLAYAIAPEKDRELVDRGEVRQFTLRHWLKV

[2] = target: norepinephrine transporter (NET) (Homo sapiens, UniProt P23975); assay: Ricerca LeadProfiling off-target screen; type: binding; conditions: read-out: inhibition or stimulation, norepinephrine transporter (NET)
Chain of norepinephrine transporter (NET) (P23975 whole entry): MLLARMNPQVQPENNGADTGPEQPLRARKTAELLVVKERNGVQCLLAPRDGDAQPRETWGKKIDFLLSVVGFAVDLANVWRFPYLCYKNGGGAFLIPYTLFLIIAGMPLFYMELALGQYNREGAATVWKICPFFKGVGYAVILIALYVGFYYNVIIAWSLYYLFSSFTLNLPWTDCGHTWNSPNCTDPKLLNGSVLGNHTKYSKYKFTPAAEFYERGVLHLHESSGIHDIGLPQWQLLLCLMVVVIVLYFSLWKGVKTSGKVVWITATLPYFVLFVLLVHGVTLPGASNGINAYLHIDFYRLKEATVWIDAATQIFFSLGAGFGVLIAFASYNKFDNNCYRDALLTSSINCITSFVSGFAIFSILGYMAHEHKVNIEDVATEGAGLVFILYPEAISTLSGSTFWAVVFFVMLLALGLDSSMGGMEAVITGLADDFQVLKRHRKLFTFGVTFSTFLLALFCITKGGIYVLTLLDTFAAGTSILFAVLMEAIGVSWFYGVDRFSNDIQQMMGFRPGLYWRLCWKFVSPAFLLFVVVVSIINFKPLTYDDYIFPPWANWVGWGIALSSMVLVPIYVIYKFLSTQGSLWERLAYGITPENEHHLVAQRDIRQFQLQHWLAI

[3] = phosphate buffered saline (PBS) and assay media
adrenergic α2A = target: T1, adrenergic α2A (Homo sapiens, UniProt P08913); assay: Ricerca LeadProfiling off-target screen; conditions: read-out: inhibition or stimulation, adrenergic α2A
T1 sequence (P08913 1-465): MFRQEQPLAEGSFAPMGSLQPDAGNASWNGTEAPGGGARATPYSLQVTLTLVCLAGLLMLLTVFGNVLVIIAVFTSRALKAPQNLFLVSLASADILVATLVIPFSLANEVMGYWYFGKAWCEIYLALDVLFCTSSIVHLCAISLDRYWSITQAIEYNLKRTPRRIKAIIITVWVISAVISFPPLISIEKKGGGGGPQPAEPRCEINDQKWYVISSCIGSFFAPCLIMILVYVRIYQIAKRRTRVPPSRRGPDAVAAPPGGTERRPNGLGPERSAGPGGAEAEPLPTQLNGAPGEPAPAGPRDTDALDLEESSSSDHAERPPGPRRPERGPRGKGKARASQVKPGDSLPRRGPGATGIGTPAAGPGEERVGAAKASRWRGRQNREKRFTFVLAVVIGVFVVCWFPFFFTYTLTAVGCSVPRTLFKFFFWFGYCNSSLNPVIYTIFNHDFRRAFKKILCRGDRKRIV

Clk4 = Clk4 (Homo sapiens, UniProt Q9HAZ1); assay: Kinase Glo; type: biochemical; conditions: matrix library, Kinase Glo (Promega) assay, Figure 4
Chain of Clk4 (Q9HAZ1 whole entry, species assumed): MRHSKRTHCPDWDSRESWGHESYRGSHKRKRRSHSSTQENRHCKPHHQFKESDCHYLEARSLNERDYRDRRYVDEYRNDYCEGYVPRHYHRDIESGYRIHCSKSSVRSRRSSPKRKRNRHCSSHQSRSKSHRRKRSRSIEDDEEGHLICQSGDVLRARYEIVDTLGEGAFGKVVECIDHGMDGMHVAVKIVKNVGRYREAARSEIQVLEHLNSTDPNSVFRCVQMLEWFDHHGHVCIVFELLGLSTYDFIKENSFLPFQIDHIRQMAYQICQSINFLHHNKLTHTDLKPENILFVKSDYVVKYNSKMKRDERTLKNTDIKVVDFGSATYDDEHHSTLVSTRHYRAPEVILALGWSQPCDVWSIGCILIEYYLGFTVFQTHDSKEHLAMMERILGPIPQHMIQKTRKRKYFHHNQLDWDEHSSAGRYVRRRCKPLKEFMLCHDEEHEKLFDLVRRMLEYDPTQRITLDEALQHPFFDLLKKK

Clk3 = Clk3 (Homo sapiens, UniProt P49761); conditions: cited from earlier work
Chain of Clk3 (P49761 whole entry): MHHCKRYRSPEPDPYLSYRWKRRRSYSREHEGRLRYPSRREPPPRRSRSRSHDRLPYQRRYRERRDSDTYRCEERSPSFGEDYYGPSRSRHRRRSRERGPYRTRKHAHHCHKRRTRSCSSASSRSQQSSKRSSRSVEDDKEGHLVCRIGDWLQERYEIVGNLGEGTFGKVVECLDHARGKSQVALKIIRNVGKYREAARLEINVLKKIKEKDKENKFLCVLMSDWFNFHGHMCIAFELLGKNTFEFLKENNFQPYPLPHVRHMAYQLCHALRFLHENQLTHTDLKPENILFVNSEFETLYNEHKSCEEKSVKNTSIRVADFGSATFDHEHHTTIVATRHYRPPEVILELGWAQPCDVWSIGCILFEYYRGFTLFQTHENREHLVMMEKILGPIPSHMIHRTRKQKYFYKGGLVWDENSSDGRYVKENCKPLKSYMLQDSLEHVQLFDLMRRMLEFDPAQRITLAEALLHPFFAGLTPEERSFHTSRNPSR

Chain of CSNK1E (P49674 whole entry): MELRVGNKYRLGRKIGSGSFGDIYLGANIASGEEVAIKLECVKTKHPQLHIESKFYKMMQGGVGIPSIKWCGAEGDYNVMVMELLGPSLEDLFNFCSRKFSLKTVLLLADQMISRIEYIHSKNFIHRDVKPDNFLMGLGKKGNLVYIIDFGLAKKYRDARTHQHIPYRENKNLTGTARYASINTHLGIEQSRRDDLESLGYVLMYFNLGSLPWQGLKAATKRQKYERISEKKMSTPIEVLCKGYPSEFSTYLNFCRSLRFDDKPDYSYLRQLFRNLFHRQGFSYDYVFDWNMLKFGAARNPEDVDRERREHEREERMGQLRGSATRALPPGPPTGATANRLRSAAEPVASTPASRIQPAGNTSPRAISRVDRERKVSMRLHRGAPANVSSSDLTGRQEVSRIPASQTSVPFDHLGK

Structure (SMILES): Clc1cc(Cl)cc(CNc2ncncc2-c2ccc3c(c2)OCO3)c1 [Compound 35]
inhibition at 10 µM [1]: > 50% | inhibition at 10 µM [2]: > 50% | solubility [3]: limited | cell permeability (Cell permeability): moderately cell permeable | plasma stability (Plasma stability, mouse): stable | plasma stability (Plasma stability, human): stable | inhibition at 10 µM (adrenergic α2A): > 50%

Structure (SMILES): Clc1ccc(CNc2ccnc(-c3ccc4c(c3)OCO4)n2)cc1Cl [Compound A2]
activity against Clk4 (Clk4): active

Structure (SMILES): Clc1ccc(CNc2ccnc(-c3ccc4c(c3)OCO4)n2)cc1 [Compound A4]
activity against Clk4 (Clk4): active

Structure (SMILES): COc1ccc(-c2nccc(NCc3ccc(Cl)cc3)n2)cc1 [Compound G4]
activity against Clk4 (Clk4): active

Structure (SMILES): O=C1NC(Nc2ccccc2)=N/C1=C\c1ccc2c(c1)OCO2 [Leucettine L41]
IC50 (Clk3; read-out: Clk3 IC50): 4.5 µM

Structure (SMILES): CCN1/C(=C/C(C)=O)Sc2ccc(OC)cc21 [TG003]
Clk3 activity (Clk3): inactive

Continued, values first:

remaining binding at 10 µM (CSNK1E): < 10% | % control DRAK (DRAK): < 10 % control
Structure (SMILES): Clc1ccc(CNc2nccc(-c3ccc4[nH]ncc4c3)n2)cc1Cl [Compound 22]

activity against Clk4 (Clk4): active
Structure (SMILES): COc1cccc(-c2nccc(NCc3ccc(Cl)c(Cl)c3)n2)c1 [Compound C2]

activity against Clk4 (Clk4): active
Structure (SMILES): COc1ccc(-c2nccc(NCc3ccc(Cl)c(Cl)c3)n2)cc1 [Compound G2]
